Test results as given in PMC11742723, “The clinical-stage drug BTZ-043 accumulates in murine tuberculosis lesions and efficiently acts against Mycobacterium tuberculosis” (Nature Communications, 2025).
In brackets after ≈: the same amount, converted by molar mass. Several values for one entry are separate records, joined by “and”; a condition that tells them apart may be missing. Identical values can stand only once. Like-named read-outs stand apart in the source and are kept apart here.

Columns and labels:
Mtb H37Rv [1] = assay: BTZ-043 dose-fractionation study in Mtb-infected BALB/c mice (lung CFU); format: in vivo, Mycobacterium tuberculosis; settings: for pulmonary CFU counts / mouse: 6 weeks of treatment, individual female mice
Mtb H37Rv [2] = assay: BTZ-043 treatment for 10 days of Mtb-infected IL-13tg mice (pulmonary CFU); format: in vivo, Mycobacterium tuberculosis
Mtb [3] = assay: Lesional efficacy: LCM of necrotic core and Mtb 16S rRNA molecular bacterial load assay (MBLA); format: in vivo, Mycobacterium tuberculosis; settings: for CFU / mm3 (MBLA): BTZ-043 [250 mg/kg], individual mice, 250 mg/kg
Mtb H37Rv [4] = assay: Ziehl-Neelsen staining and histology of centrally necrotizing granulomas in IL-13tg mice; format: in vivo, Mycobacterium tuberculosis; settings: 250 mg/kg/day 10 days, versus untreated
Experimental: Cryosections were fixed with 4% paraformaldehyde/PBS (24 h or 1 h for non-irradiated or irradiated sections, respectively) prior to staining with haematoxylin and eosin (HE), ZN or Heidenhain’s azan trichrome. For immunohistochemical analysis ZN stained cryosections were probed with rabbit polyclonal CD68 antibody (1:200, ab125212, Abcam, Cambridge, UK) which was detected with biotinylated goat anti-rabbit antibody (1:100, 111-065-144, Jackson Immunoresearch, Suffolk, UK)[13]. To visualize lipid droplets, irradiated cryosections were fixed (10% ice-cold formalin/PBS), washed with 60% 2-propanol, and incubated in Oil Red O solution (O0625, Sigma-Aldrich, Taufkirchen, Germany). After washing (60% 2-propanol and water), Gill’s haematoxylin was used for counterstaining. Images were acquired on a BX41 light microscope (Olympus, Hamburg, Germany) using cellSens imaging software (Olympus, Hamburg, Germany) or NIS-Elements software (Nikon, Badhoevedorp, The Netherlands). Post MALDI imaging HE staining was performed with the following protocol[40]: the matrix layer was washed off with MeOH. Rehydrated (2 min in 100%, 70%, 40% EtOH then 100% H2O) samples were submerged in Mayers haematoxylin solution for 12 min followed by 10 min submersion in Na2CO3 (1%) and rinsed with distilled water. Counterstaining was performed by 2-min submersion in 0.5% acidified eosin Y.

[5] = Impact of γ-irradiation on BTZ-043 in spiked liver mimetic tissue cryosections; parameters: species or system mouse; settings: for ng/mg lung tissue, technical replicate 1 / ng/mg lung tissue, technical replicate 2 / Extract concentration, technical replicate 1 / Extract concentration, technical replicate 2 / ng/mg lung tissue, Mean: BTZ-043 spiked liver homogenate section (9.7 µg/g); for Extract concentration, technical replicate 1 / Extract concentration, technical replicate 2: LC-MS/MS; for ng/mg lung tissue, Mean: mean of technical replicates
[6] = BALB/c, mouse, in vivo
Caco-2 cell monolayers [7] = tested on: Caco-2 cell monolayers
[8] = for ng BTZ-043 / mg cryosection: individual cryosections; for BTZ-043 concentration in lung cryosections: Mtb-infected IL-13tg mice, 10 daily doses 250 mg/kg, one mouse each, n=5 cryosections, 250 mg/kg
H37Rv = settings: in vitro, against H37Rv; cited from earlier work
Mtb [9] = tested on: Mtb; parameters: method as in PMID 37791784; settings: C3HeB/FeJ substrain, 2 months of therapy; cited from earlier work
Mtb [10] = tested on: Mtb; parameters: method as in PMID 37791784, PMID 34370580; settings: in vitro, ref PMID 37791784, PMID 34370580; cited from earlier work
Mtb [11] = tested on: Mtb; parameters: method as in PMID 39793592; settings: phase IIa EBA, 250 mg - 1750 mg once daily for 14 days; cited from earlier work
in vivo = settings: IL-13tg, mouse, oral, 250 mg/kg
in vitro = settings: human
[12] = In vitro permeability assay in Caco-2 monolayers; settings: human, Caco-2
Caco-2 cell monolayers [13] = assay: In vitro permeability assay in Caco-2 monolayers; settings: direction AB, time 60 min
[14] = IL-13tg mice, 250 mg/kg/day, 10 days

SMILES: C[C@H]1COC2(CCN(c3nc(=O)c4cc(C(F)(F)F)cc([N+](=O)[O-])c4s3)CC2)O1 [BTZ-043]
- pulmonary CFU counts / mouse (Mtb H37Rv [1]; 2.5 mg/kg BTZ-043 BID): 20001 CFU counts / mouse and 18001 CFU counts / mouse and 34001 CFU counts / mouse and 55001 CFU counts / mouse
- pulmonary CFU counts / mouse (Mtb H37Rv [1]; 2.5 mg/kg BTZ-043 QD): 50001 CFU counts / mouse and 110001 CFU counts / mouse and 82501 CFU counts / mouse
- pulmonary CFU counts / mouse (Mtb H37Rv [1]; 5 mg/kg BTZ-043 QD): 160001 CFU counts / mouse and 92501 CFU counts / mouse
- CFU reduction compared to the untreated control (Mtb H37Rv [1]; BALB/c lungs, 250 mg/kg QD microcrystalline BTZ-043, 6 weeks): 3.7 log10 CFU
- effect of fractionation of the dose into two administrations (BID vs QD, identical total dose) (Mtb H37Rv [1]; amorphous BTZ-043, 5 to 50 mg/kg/day, 6 weeks): modest, but consistent, trend towards increased mycobactericidal activity
- pulmonary CFU / mouse (Mtb H37Rv [2]; BTZ-043 [250 mg/kg], 2 weeks of therapy, individual mice, female and male, 250 mg/kg): 22635294 CFU / mouse and 34160000 CFU / mouse and 22750000 CFU / mouse and 19564286 CFU / mouse and 20000000 CFU / mouse
- reduction of the bacterial load versus start of treatment (Mtb H37Rv [2]; IL-13tg mice lungs, 250 mg/kg/day, 10 days): 0.9 log10 CFU
- reduction of the bacterial burden (Mtb H37Rv [2]; IL-13tg mice lungs, 250 mg/kg/day, 10 days, versus before treatment): 86%
- bacterial burden after therapy as share of the initial CFU counts (Mtb H37Rv [2]; [14]): 13.8%
- mean pulmonary bacterial burden after treatment (Mtb H37Rv [2]; [14]): 4.8 × 10^7 CFU
- pulmonary bacterial burden after therapy (Mtb H37Rv [2]; IL-13tg mice, 250 mg/kg/day, 10 days, mean): 7.69 log10 CFU
- pulmonary CFU counts / mouse (Mtb H37Rv [2]; IL-13tg mice, female, 10 days BTZ-043 250 mg/kg, 250 mg/kg): 22032000 and 27394286
- CFU / mm3 (MBLA) (Mtb [3]; 2 weeks of therapy): 322664 CFU / mm3 and 2329437 CFU / mm3
- CFU / mm3 (MBLA) (Mtb [3]; 4-6 weeks of therapy): 228171 CFU / mm3 and 91947 CFU / mm3 and 205657 CFU / mm3
- Mtb 16S rRNA expression in the necrotic center compared to the vehicle group (Mtb [3]; IL-13tg mice, 250 mg/kg 5 times a week, 2 weeks of treatment): decreased
- bacterial load in the necrotic center (Mtb [3]; IL-13tg mice, 250 mg/kg 5 times a week, further course of therapy (4 to 6 weeks)): strongly reduced
- reduction of bacterial burden in necrotic areas of granulomas (Mtb 16S rRNA) (Mtb [3]; IL-13tg mice, LCM-isolated necrotic areas): 2 log10
- acid fast bacilli (AFB) within centrally necrotizing granulomas (ZN staining) (Mtb H37Rv [4]): most notable reduction in AFB within the layer of foamy macrophages
- ng/mg lung tissue, technical replicate 1 ([5]; irradiation): 5.99 ng/mg and 26 ng/mg and 6.57 ng/mg and 6.4 ng/mg and 5.5 ng/mg and 5.14 ng/mg and 5.58 ng/mg
- ng/mg lung tissue, technical replicate 2 ([5]; irradiation): 6.75 ng/mg and 23.9 ng/mg and 6.81 ng/mg and 5.4 ng/mg and 6.51 ng/mg and 6.42 ng/mg
- Extract concentration, technical replicate 1 ([5]; irradiation): 0.0193 µg/mL and 0.079 µg/mL and 0.0196 µg/mL and 0.0194 µg/mL and 0.0175 µg/mL and 0.0152 µg/mL and 0.0178 µg/mL
- Extract concentration, technical replicate 2 ([5]; irradiation): 0.0218 µg/mL and 0.0727 µg/mL and 0.0207 µg/mL and 0.0172 µg/mL and 0.0193 µg/mL and 0.0205 µg/mL
- ng/mg lung tissue, Mean ([5]; irradiation): 6.37 ng/mg and 6.57 ng/mg and 6.6 ng/mg and 5.45 ng/mg and 5.82 ng/mg and 6 ng/mg
- ng/mg lung tissue, technical replicate 1 ([5]; no irradiation): 6.1 ng/mg and 5.48 ng/mg and 7.3 ng/mg and 4.22 ng/mg and 6.84 ng/mg and 6.88 ng/mg and 6.26 ng/mg
- ng/mg lung tissue, technical replicate 2 ([5]; no irradiation): 6.14 ng/mg and 6.24 ng/mg and 7.55 ng/mg and 4.89 ng/mg and 8.49 ng/mg and 7.42 ng/mg and 7.29 ng/mg
- Extract concentration, technical replicate 1 ([5]; no irradiation): 0.0195 µg/mL and 0.0179 µg/mL and 0.0233 µg/mL and 0.0135 µg/mL and 0.0216 µg/mL and 0.0204 µg/mL and 0.0187 µg/mL
- Extract concentration, technical replicate 2 ([5]; no irradiation): 0.0197 µg/mL and 0.0204 µg/mL and 0.0241 µg/mL and 0.0156 µg/mL and 0.0268 µg/mL and 0.0221 µg/mL and 0.0218 µg/mL
- ng/mg lung tissue, Mean ([5]; no irradiation): 6.12 ng/mg and 5.86 ng/mg and 7.42 ng/mg and 4.56 ng/mg and 7.66 ng/mg and 7.15 ng/mg and 6.78 ng/mg
- Conc. (Targetlynx export, sample extract) ([5]; BTZ-043 spiked liver homogenate section, no irradiation, injections 1 and a, internal standard reserpine): 1.87E-02
- impact of γ-irradiation on the concentration and distribution of BTZ-043 ([5]; liver mimetic cryosections, 5.85 kGy): does not impact
- BTZ-043 concentration in liver mimetic cryosection, outlier removed ([5]; spiked liver mimetic tissue, rout method outlier): 24.95 ng/mg
- AUC at which BTZ-043total exposure reaches saturation [6]: ~30,000 h·ng/mL
- Cmax at which BTZ-043total exposure reaches saturation [6]: around 8000 ng/mL
- Tmax [6]: 30 to 60 min
- AUCinf ([6]; po, 2.5 mg/kg/day): 666 ng·h/mL
- Cmax ([6]; po, 2.5 mg/kg/day): 520 ng/mL
- Tmax ([6]; po, 2.5 mg/kg/day): 30 min
- AUCinf ([6]; po, 5 mg/kg/day): 1,360 h·ng/mL
- Cmax ([6]; po, 5 mg/kg/day): 1,050 ng/mL
- Tmax ([6]; po, 5 mg/kg/day): 30 min
- AUCinf ([6]; po, 50 mg/kg/day): 14,700 h·ng/mL
- Cmax ([6]; po, 50 mg/kg/day): 8070 ng/mL
- Tmax ([6]; po, 50 mg/kg/day): 30 min
- permeability classification (Caco-2 cell monolayers [7]): permeable drug
- transport mechanism indicated by efflux ratios (Caco-2 cell monolayers [7]): passive diffusion is dominant over active transport mechanisms
- ng BTZ-043 / mg cryosection ([8]; 2 h after administration, mouse KW116 B9#1 (male)): 1.02 ng / mg cryosection and 0.92 ng / mg cryosection and 0.62 ng / mg cryosection
- ng BTZ-043 / mg cryosection ([8]; 8 h after administration, mouse KW116 B15#1 (female)): 0.27 ng / mg cryosection (2×) and 0.21 ng / mg cryosection and 0.36 ng / mg cryosection
- pulmonary drug concentrations in lung cryosections ([8]; IL-13tg mice, until 8 h after administration): 270 to 1940 ng/g
- BTZ-043 concentration in lung cryosections ([8]; 0.5 h after last administration): 1.32 ± 0.33 ng/mg cryosection
- BTZ-043 concentration in lung cryosections ([8]; 2 h after last administration): 1.10 ± 0.25 ng/mg cryosection
- BTZ-043 concentration in lung cryosections ([8]; 4 h after last administration): 0.79 ± 0.12 ng/mg cryosection and 1.94 ± 0.37 ng/mg cryosection
- BTZ-043 concentration in lung cryosections ([8]; 8 h after last administration): 0.27 ± 0.05 ng/mg cryosection and 0.65 ± 0.06 ng/mg cryosection
- pulmonary BTZ-043 concentrations relative to the MIC ([8]; all time points investigated (0.5-8 h), n=8 mice): substantially higher than the MIC at all time points investigated
- BTZ-043 concentration in the whole section above the MIC ([8]; lung cryosections, 4 and 8 h): at least 100 x
- finding at necropsy (BTZ-043 treated mice, most pronounced at the highest dose for 8 weeks): enlarged stomachs
- health status of drug treated mice at high treatment doses (dose escalation study, BALB/c): did not observe any indication that could point to adverse side effects
- MIC (H37Rv): 1 ng/mL (≈ 2.32 nM)
- effect on pulmonary bacterial load (Mtb [9]): significant reduction of the pulmonary bacterial load
- caseum activity assay result (Mtb [10]): negative
- bacterial killing with increasing dose in TB patients (Mtb [11]): no obvious further increase in bacterial killing above daily doses of 1000 mg
- concentration at 0.5 h (in vivo; both, lung (cryosections)): 1120 ± 190 ng/g
- concentration at 2 h (in vivo; both, lung (cryosections)): 910 ± 150 ng/g
- concentration at 8 h (in vivo; both, lung (cryosections)): 270 ng/mL
- concentration at 4 h (in vivo; female, lung cryosection): 780 ng/g
- concentration at 8 h (in vivo; female, lung cryosection): 260 ng/g
- concentration at 2 h (in vivo; female, lung cryosections): 1090 ng/g
- concentration at 2 h (in vivo; male, lung cryosection): 950 ng/g
- concentration at 0.5 h (in vivo; male, lung cryosections): 1280 ng/g
- concentration at 4 h (in vivo; male, lung cryosections): 1380 ng/g
- concentration at 8 h (in vivo; male, lung cryosections): 730 ng/g
- Papp B→A at 120 min (in vitro; Caco-2): 6.9 to 12.9 ×10⁻⁶ cm/s
- Papp at 120 min, 1 µg/mL (in vitro; Caco-2, Mean Papp): 9.44 ×10⁻⁶ cm/s
- Papp at 120 min, 4 µg/mL (in vitro; Caco-2, Mean Papp): 12.9 ×10⁻⁶ cm/s
- Papp A→B at 120 min [12]: 9.44 to 11.3 ×10⁻⁶ cm/s
- Papp at 120 min, 4 µg/mL [12]: 11.3 ×10⁻⁶ cm/s
- efflux ratio at 120 min, 1 µg/mL [12]: 0.73
- efflux ratio at 120 min, 4 µg/mL [12]: 1.14
- Concentration (Caco-2 cell monolayers [13]; BTZ-043 4 μg mL^-1, replicates 1-3): 124.355 ng/mL
- Calculated Amount (Caco-2 cell monolayers [13]; BTZ-043 (4 µg mL^-1), compartment baso): 124.355
